Data taken from ChEMBL document CHEMBL6127052, “Discovery of membrane-targeting amphiphilic honokiol derivatives containing an oxazolethione moiety to combat methicillin-resistant Staphylococcus aureus (MRSA) infections” (Eur J Med Chem, 2024).
Activity calls are given as the source filed them. The calls are words filed in the database; no cut-off is given here.

Assays:
[1] = test system: Staphylococcus aureus; assay: Induction of morphological changes in methicillin-resistant Staphylococcus aureus clinical isolate M12 assessed as concavity in cell membrane at 8 times MIC incubated for 4 hrs by SEM analysis; format: functional, organism-based
[2] = Toxicity in KM mouse assessed as inflammatory cell infiltration in renal tubular epithelial cells at 20 mg/kg, sc measured after 24 hrs by H and E staining based analysis; format: organism-based; conditions: in vivo
[3] = test system: Staphylococcus aureus; assay: Induction of morphological changes in methicillin-resistant Staphylococcus aureus clinical isolate M12 assessed as rupture of bacterial bodies at 8 times MIC incubated for 4 hrs by SEM analysis; format: functional, organism-based
[4] = Toxicity in KM mouse assessed as pathological change in skin at 20 mg/kg, sc measured after 24 hrs by H and E staining based analysis; format: organism-based; conditions: in vivo
[5] = test system: Staphylococcus aureus; assay: Induction of morphological changes in methicillin-resistant Staphylococcus aureus clinical isolate M12 assessed as torn cell membrane at 8 times MIC incubated for 4 hrs by SEM analysis; format: functional, organism-based
[6] = test system: Staphylococcus aureus; assay: Induction of membrane depolarization in methicillin-resistant Staphylococcus aureus clinical isolate M12 at 8 to 32 times MIC measured every 2 mins for 10 times by DiSC3(5) dye based analysis; format: functional, organism-based; conditions: time 20.0 min
[7] = Toxicity in KM mouse assessed as change in platelet count at 20 mg/kg, sc measured after 24 hrs; format: organism-based; conditions: in vivo
[8] = Toxicity in KM mouse assessed as change in HGB level at 20 mg/kg, sc measured after 24 hrs; format: organism-based; conditions: in vivo
[9] = Toxicity in KM mouse assessed as pathological change in liver at 20 mg/kg, sc measured after 24 hrs by H and E staining based analysis; format: organism-based; conditions: in vivo
[10] = test system: Staphylococcus aureus; assay: Antibacterial activity against methicillin-resistant Staphylococcus aureus clinical isolate M11 by CLSI based micro-broth dilution method; format: functional
[11] = test system: Staphylococcus aureus; assay: Antibacterial activity against methicillin-resistant Staphylococcus aureus clinical isolate M12 infected in KM mouse assessed as smooth skin at infection site at 10 mg/kg, sc measured after 24 hrs; format: functional, organism-based
[12] = Toxicity in BALB/c mouse assessed as edema in renal tubular epithelial cells at 15 mg/kg, ip bid for 7 days; format: organism-based; conditions: in vivo, 168 h, time 7 day
[13] = test system: Staphylococcus aureus; assay: Antibacterial activity against methicillin-resistant Staphylococcus aureus clinical isolate M12 incubated for 16 to 18 hrs in presence of cardiolipin; format: functional; conditions: time 16-18 hrs
[14] = test system: Staphylococcus aureus; assay: (§1) Antibacterial activity against methicillin-resistant Staphylococcus aureus clinical isolate M12 infected in sepsis BALB/c mouse model assessed as decrease in pathological change in white medulla of spleen at 12 mg/kg, ip administered consecutively at 12 hr-interval for 24 hrs measured after 24 hrs post-last dose by H and E staining based analysis; format: functional, organism-based; conditions: time 48.0 hrs
[15] = Toxicity in BALB/c mouse assessed as feeding abnormality at <15 mg/kg, ip bid for 7 days; format: organism-based; conditions: in vivo, 168 h, time 7 day
[16] = Toxicity in KM mouse infected with methicillin-resistant Staphylococcus aureus clinical isolate M12 assessed as damage in liver at 5 to 10 mg/kg, sc measured after 24 hrs by H and E staining based analysis; format: organism-based; conditions: in vivo, dose 5-10 mg/kg
[17] = Toxicity in KM mouse assessed as inflammatory cell infiltration in hepatocytes at 20 mg/kg, sc measured after 24 hrs by H and E staining based analysis; format: organism-based; conditions: in vivo
[18] = test system: Staphylococcus aureus; assay: Antibacterial activity against methicillin-resistant Staphylococcus aureus clinical isolate M12 infected in KM mouse assessed as decrease in bacterial load in skin tissues at 10 mg/kg, sc measured after 24 hrs by drop-plate counting method (reference value: 6.7); format: functional; set-up: scale not given: the % may be the effect or the level left
[19] = test system: Staphylococcus aureus; assay: Antibacterial activity against methicillin-resistant Staphylococcus aureus clinical isolate M12 infected in KM mouse assessed as intact skin at infection site at 10 mg/kg, sc measured after 24 hrs; format: functional, organism-based
[20] = Stability in sheep plasma infected with methicillin-resistant Staphylococcus aureus clinical isolate M12 at 16 ug/ml pretreated compound with plasma for 6 hrs followed by bacterial infection for 16 to 18 hrs; format: ADME, cell-free, Ovis aries; conditions: at 16 µg/mL, time 22-24 hrs
[21] = test system: Staphylococcus aureus; assay: Antibacterial activity against methicillin-resistant Staphylococcus aureus clinical isolate M23 by CLSI based micro-broth dilution method; format: functional
[22] = test system: Staphylococcus aureus; assay: Bactericidal activity against Staphylococcus aureus ATCC 29213 at 8 times MIC incubated upto 8 hrs by time-kill assay; format: functional, organism-based
[23] = Toxicity in BALB/c mouse assessed as loss of lustrous hair at 40 mg/kg, ip bid for 7 days; format: organism-based; conditions: in vivo, 168 h, time 7 day
[24] = test system: Staphylococcus aureus; assay: Induction of membrane permeability in methicillin-resistant Staphylococcus aureus clinical isolate M12 at 8 to 32 times MIC measured every 2 mins for 10 times by SYTOX Green dye based analysis; format: functional, organism-based
[25] = test system: Staphylococcus aureus; assay: Antibacterial activity against methicillin-resistant Staphylococcus aureus clinical isolate M12 infected in KM mouse assessed as decrease in bacterial survival rate at 5 mg/kg, sc measured after 24 hrs by drop-plate counting method relative to control; format: functional
[26] = test system: Staphylococcus aureus; assay: Antibacterial activity against Staphylococcus aureus ATCC 29213 by CLSI based micro-broth dilution method; format: functional
[27] = test system: Staphylococcus aureus; assay: Bactericidal activity against methicillin-resistant Staphylococcus aureus clinical isolate M12 infected in KM mouse assessed as decrease in inflammatory cells in epidermis at 10 mg/kg, sc measured after 24 hrs; format: functional, organism-based
[28] = test system: Staphylococcus aureus; assay: as §1, with “degeneration” for “pathological change in white medulla”, “hepatocytes” for “spleen”; format: functional, organism-based; conditions: time 48.0 hrs
[29] = Toxicity in KM mouse assessed as change in HCT level at 20 mg/kg, sc measured after 24 hrs; format: organism-based; conditions: in vivo
[30] = test system: Staphylococcus aureus; assay: as §1, with “necrosis” for “pathological change”, “hepatocytes” for “white medulla of spleen”; format: functional, organism-based; conditions: time 48.0 hrs
[31] = Selectivity index, ratio of HC50 for hemolytic activity in sheep erythrocytes to MIC for antibacterial activity against Staphylococcus aureus ATCC 29213; format: toxicity, cell-based, RBC
[32] = test system: Staphylococcus aureus; assay: Induction of morphological changes in methicillin-resistant Staphylococcus aureus clinical isolate M12 assessed as irregular change in cell surface at 8 times MIC incubated for 4 hrs by SEM analysis; format: functional, organism-based
[33] = Toxicity in KM mouse assessed as necrosis in renal tubular epithelial cells at 20 mg/kg, sc measured after 24 hrs by H and E staining based analysis; format: organism-based; conditions: in vivo
[34] = Toxicity in BALB/c mouse assessed as pathological change in white medulla of spleen at 15 mg/kg, ip bid for 7 days; format: organism-based; conditions: in vivo, 168 h, time 7 day
[35] = test system: Staphylococcus aureus; assay: Antibacterial activity against methicillin-resistant Staphylococcus aureus clinical isolate M12 infected in KM mouse assessed as decrease in erythematous pustules in intradermal tissues at 5 mg/kg, sc measured after 24 hrs; format: functional, organism-based
[36] = test system: Staphylococcus aureus; assay: Disruption of cell membrane in methicillin-resistant Staphylococcus aureus clinical isolate M12 assessed as accumulation of intracellular ROS level incubated for 40 mins by DCFH-DA probe based analysis; format: functional, organism-based; conditions: dose <= 128.0 µg/ml
[37] = Toxicity in sepsis BALB/c mouse model infected with methicillin-resistant Staphylococcus aureus clinical isolate M12 assessed as survival rate at 12 mg/kg, ip administered consecutively at 12 hr-interval for 7 days measured after 24 hrs post-last dose; format: organism-based; conditions: in vivo, 192 h, time 8 day
[38] = test system: Staphylococcus aureus; assay: Disruption of cell membrane in methicillin-resistant Staphylococcus aureus clinical isolate M12 assessed as fold increase in DNA leakage at 8 times MIC incubated for 4 hrs by […] relative to control; format: functional

With `C=CCc1cc(-c2ccc(OCCC[N+](C)(C)CC(=O)NCCCC)c(CC=C)c2)c2oc(=S)n(Cc3ccc(F)cc3)c2c1.[Br-]` the Activity [1] was “Active”, the Activity [2] was “Non-Toxic” and the Activity [3] was “Active”. For the same compound, the Activity [4] was “Non-Toxic”, the Activity [5] was “Active” and the Activity [6] was “Active”. For the same compound, the Activity [7] was “Non-Toxic”, the Activity [8] was “Non-Toxic” and the Activity [9] was “Non-Toxic”. For the same compound, the MIC [10] was 4 µg/mL, the Activity [11] was “Active” and the Activity [12] was “Non-Toxic”. The MIC [13] was 32 µg/mL, the Activity [14] was “Active” and the Activity [15] was “Non-Toxic”. For the same compound, the Activity [16] was “Non-Toxic”, the Activity [17] was “Non-Toxic” and the Activity [18] was 4.1%. The Activity [19] was “Active”, the Stability [20] was “Stable” and the MIC [21] was 2 µg/mL. The Activity [22] was “Active”, the Activity [23] was “Toxic” and the Activity [24] was “Active”. For the same compound, the Activity [25] was 92.72%, the MIC [26] was 2 µg/mL and the Activity [27] was “Active”. The Activity [28] was “Active”, the Activity [29] was “Non-Toxic” and the Activity [30] was “Active”. The selectivity ratio [31] was 95.1, the Activity [32] was “Active” and the Activity [33] was “Non-Toxic”. For the same compound, the Activity [34] was “Non-Toxic”, the Activity [35] was “inactive” and the Activity [36] was “Dose-Dependent Effect”. The Survival [37] was 33.3% and the “fold change (FC)” value [38] was ~4.
